Read-outs that look alike come from different tables or passages of the source. Where a SMILES comes first, the peptide text is derived from it.
Assays:
Staphylococcus aureus = type: cell-based; settings: for antimicrobial activities against gram-positive bacteria (S. aureus), in words: summary of Table 2
Experimental: (§1) Regarding the antimicrobial peptide in samples 1 to 14 and the comparative sample 1, the antimicrobial activities (minimum inhibitory concentration: MIC) with respect to gram-negative bacteria (Escherichia coli) and gram-positive bacteria (Staphylococcus aureus) were determined, as described below, by a liquid medium dilution technique using a 96-well microplate. First, a drug (synthesized peptide) solution having a concentration of 40 times of the highest test concentration was prepared using sterile distilled water, and thereafter liquid-bouillon mediums (“NUTRIENT BROTH Dehydrated” manufactured by DIFCO) having peptide concentrations of 200, 100, 50, 25, 12.5, 6.25, 3.13, 1.56 and 0.78 μM were produced respectively. The produced liquid-bouillon mediums including the peptide of each concentration were then fed to the 96-well microplate at 100 μL a time.
(§2) At the same time, test bacteria cultured for 18 hours at 37° C. on an agar plate (“Muller Hinton Agar” manufactured by DIFCO) were gathered by scratching with a loop, and then suspended in a sterilized physiological saline. Bacterial suspension 5 μL prepared at an equivalent of 2×10^7 cells/mL was respectively inoculated (number of bacteria to be tested: approximately 1×10^6 cells/mL) onto the above-described liquid-bouillon mediums including the peptide of each concentration and fed to each well of the above-described microplate. After inoculation, the microplate was then incubated in an incubator at 37° C., and the presence of bacteria was evaluated based on the turbidity 24 hours later. The minimum drug concentration (peptide concentration), in which an increased in turbidity caused by bacteria was not detected at the time of measurement, was defined as MIC (minimum inhibitory concentration) (unit: μM) in the present embodiment.

Escherichia coli = type: cell-based
Experimental: as §1, §2

[1] = liquid-bouillon medium (Nutrient Broth), 37° C., turbidity after 24 hours

| Antimicrobial Activities (MIC) S. aureus (Staphylococcus aureus; 24 h) [µM] | Antimicrobial Activities (MIC) E. coli (Escherichia coli; 24 h) [µM] | Compound | Antimicrobial Activities (MIC) S. aureus (Staphylococcus aureus; [1]) [µM] | antimicrobial activities against gram-positive bacteria (S. aureus), in words (Staphylococcus aureus) | Antimicrobial Activities (MIC) E. coli (Escherichia coli; [1]) [µM] | antimicrobial activities against E. coli, in words (Escherichia coli; summary of Table 2) |
| --- | --- | --- | --- | --- | --- | --- |
| – | – | CC(C)C[C@H](NC(=O)[C@H](CCCNC(=N)N)NC(=O)[C@H](CCC(=O)O)NC(=O)[C@H](CC(C)C)NC(=O)[C@@H]1CCCN1C(=O)[C@@H]1CCCN1C(=O)[C@@H](N)CC(C)C)C(=O)N[C@H](C(=O)N[C@@H](CC(C)C)C(=O)N[C@@H](CC(=O)O)C(N)=O)[C@@H](C)O [Comparative Sample 1, LPPLERLTLD, reference compound] (H-LPPLERLTLD-NH2) | >200 | no antimicrobial activity | >200 | no antimicrobial activity |
| 50 | 200 | CC(C)[C@H](NC(=O)[C@H](C)NC(=O)[C@@H](NC(=O)[C@H](CCCCN)NC(=O)[C@@H](N)CCCCN)C(C)C)C(=O)N[C@H](C(=O)N[C@@H](CCCNC(=N)N)C(N)=O)C(C)C [Sample 1, KKVAVVR] (H-KKVAVVR-NH2) | – | – | – | – |
| 200 | 200 | CC[C@H](C)[C@H](NC(=O)[C@H](CCC(N)=O)NC(=O)[C@@H](NC(=O)[C@@H](N)CCCCN)C(C)C)C(=O)N[C@H](C(=O)N[C@@H](CC(N)=O)C(=O)N[C@@H](CCCCN)C(=O)N[C@@H](CCCCN)C(N)=O)[C@@H](C)CC [Sample 2, KVQIINKK] (H-KVQIINKK-NH2; N-terminus assumed) | – | – | – | – |
| 3.13 | 6.25 | CC[C@H](C)[C@H](NC(=O)[C@H](CCC(N)=O)NC(=O)[C@@H](NC(=O)[C@H](CCCNC(=N)N)NC(=O)[C@H](CCC(N)=O)NC(=O)[C@H](CC(C)C)NC(=O)[C@H](CCCCN)NC(=O)[C@H](CCCNC(=N)N)NC(=O)[C@H](CCCCN)NC(=O)[C@@H](N)CC(C)C)C(C)C)C(=O)N[C@H](C(=O)N[C@@H](Cc1ccc(O)cc1)C(=O)N[C@@H](CCCCN)C(N)=O)C(C)C [Sample 3, LKRKLQRVQIVYK] (H-LKRKLQRVQIVYK-NH2) | – | particularly high antimicrobial activities | – | – |
| 6.25 | 100 | CC[C@H](C)[C@H](NC(=O)[C@H](CCC(N)=O)NC(=O)[C@@H](NC(=O)[C@H](CCCNC(=N)N)NC(=O)[C@H](CCC(N)=O)NC(=O)[C@H](CC(C)C)NC(=O)[C@H](CCCCN)NC(=O)[C@H](CCCNC(=N)N)NC(=O)[C@H](CCCCN)NC(=O)[C@@H](N)CC(C)C)C(C)C)C(=O)N[C@H](C(=O)N[C@@H](CC(N)=O)C(=O)N[C@@H](CCCCN)C(N)=O)[C@@H](C)CC [Sample 4, LKRKLQRVQIINK] (H-LKRKLQRVQIINK-NH2) | – | particularly high antimicrobial activities | – | – |
| 12.5 | 100 | CC(C)[C@H](NC(=O)[C@H](C)NC(=O)[C@@H](NC(=O)[C@H](CCCCN)NC(=O)[C@H](CCCCN)NC(=O)[C@H](CCCNC(=N)N)NC(=O)[C@@H](NC(=O)[C@@H](NC(=O)[C@H](C)NC(=O)[C@@H](NC(=O)[C@H](CCCCN)NC(=O)[C@@H](N)CCCCN)C(C)C)C(C)C)C(C)C)C(C)C)C(=O)N[C@H](C(=O)N[C@@H](CCCNC(=N)N)C(N)=O)C(C)C [Sample 5, KKVAVVRKKVAVVR] (H-KKVAVVRKKVAVVR-NH2) | – | particularly high antimicrobial activities | – | – |
| 1.56 | 6.25 | CC[C@H](C)[C@H](NC(=O)[C@H](CCC(N)=O)NC(=O)[C@@H](NC(=O)[C@H](CCCCN)NC(=O)[C@H](CCCCN)NC(=O)[C@H](CCCCN)NC(=O)[C@H](CC(N)=O)NC(=O)[C@@H](NC(=O)[C@@H](NC(=O)[C@H](CCC(N)=O)NC(=O)[C@@H](NC(=O)[C@@H](N)CCCCN)C(C)C)[C@@H](C)CC)[C@@H](C)CC)C(C)C)C(=O)N[C@H](C(=O)N[C@@H](CC(N)=O)C(=O)N[C@@H](CCCCN)C(=O)N[C@@H](CCCCN)C(N)=O)[C@@H](C)CC [Sample 6, KVQIINKKKVQIINKK] (H-KVQIINKKKVQIINKK-NH2) | – | particularly high antimicrobial activities | – | – |
| 3.13 | 6.25 | CC(C)[C@H](NC(=O)[C@H](C)NC(=O)[C@@H](NC(=O)[C@H](CCCCN)NC(=O)[C@H](CCCCN)NC(=O)[C@@H](NC(=O)[C@H](CCCCN)NC(=O)[C@H](CCCNC(=N)N)NC(=O)[C@H](CCCCN)NC(=O)[C@H](CCCCN)NC(=O)[C@H](CCCCN)NC(=O)[C@@H](N)CCCNC(=N)N)C(C)C)C(C)C)C(=O)N[C@H](C(=O)N[C@@H](CCCNC(=N)N)C(N)=O)C(C)C [Sample 7, RKKKRKVKKVAVVR] (H-RKKKRKVKKVAVVR-NH2) | – | particularly high antimicrobial activities | – | – |
| 6.25 | 50 | CC(C)[C@H](NC(=O)[C@H](C)NC(=O)[C@@H](NC(=O)[C@H](CCCCN)NC(=O)[C@H](CCCCN)NC(=O)[C@@H](NC(=O)[C@H](CCCNC(=N)N)NC(=O)[C@@H](NC(=O)[C@@H](NC(=O)[C@H](C)NC(=O)[C@@H](NC(=O)[C@H](CCCCN)NC(=O)[C@@H](N)CCCCN)C(C)C)C(C)C)C(C)C)[C@@H](C)O)C(C)C)C(=O)N[C@H](C(=O)N[C@@H](CCCNC(=N)N)C(=O)N[C@H](C(N)=O)[C@@H](C)O)C(C)C [Sample 8, KKVAVVRTKKVAVVRT] (H-KKVAVVRTKKVAVVRT-NH2) | – | particularly high antimicrobial activities | – | – |
| 12.5 | 25 | CC[C@H](C)[C@H](NC(=O)[C@H](CCC(N)=O)NC(=O)[C@@H](NC(=O)[C@@H](N)CCCCN)C(C)C)C(=O)N[C@H](C(=O)N[C@@H](CC(N)=O)C(=O)N[C@@H](CCCCN)C(=O)N[C@@H](CCCCN)C(=O)N[C@@H](CC(C)C)C(=O)N[C@@H](CC(=O)O)C(=O)N[C@H](C(=O)N[C@@H](CO)C(=O)N[C@@H](CC(N)=O)C(=O)N[C@@H](CC(C)C)C(=O)N[C@@H](CCSC)C(=O)N[C@@H](Cc1c[nH]c2ccccc12)C(=O)N[C@@H](Cc1c[nH]c2ccccc12)C(=O)N[C@@H](CC(C)C)C(=O)N[C@@H](CC(C)C)C(N)=O)C(C)C)[C@@H](C)CC [Sample 11, KVQIINKKLDVSNLMWWLL] (H-KVQIINKKLDVSNLMWWLL-NH2) | – | particularly high antimicrobial activities | – | – |
| 3.13 | 12.5 | CC[C@H](C)[C@H](NC(=O)[C@H](CCC(N)=O)NC(=O)[C@@H](NC(=O)[C@@H](N)CCCCN)C(C)C)C(=O)N[C@H](C(=O)N[C@@H](CC(N)=O)C(=O)N[C@@H](CCCCN)C(=O)N[C@@H](CCCCN)C(=O)N[C@@H](CC(C)C)C(=O)N[C@@H](CCSC)C(=O)N[C@@H](Cc1c[nH]c2ccccc12)C(=O)N[C@@H](Cc1c[nH]c2ccccc12)C(=O)N[C@@H](CC(C)C)C(=O)N[C@@H](CC(C)C)C(N)=O)[C@@H](C)CC [Sample 12, KVQIINKKLMWWLL] (H-KVQIINKKLMWWLL-NH2) | – | particularly high antimicrobial activities | – | – |
| – | – | CC[C@H](C)[C@H](NC(=O)[C@H](CCC(N)=O)NC(=O)[C@@H](NC(=O)[C@H](CCCCN)NC(=O)[C@@H](NC(=O)[C@@H](NC(=O)[C@@H](NC(=O)[C@H](CCCNC(=N)N)NC(=O)[C@H](CCCCN)NC(=O)[C@H](CCCCN)NC(=O)[C@H](CCCNC(=N)N)NC(=O)[C@@H]1CCCN1C(=O)[C@@H]1CCCN1)[C@@H](C)O)C(C)C)C(C)C)C(C)C)C(=O)N[C@H](C(=O)N[C@@H](CC(N)=O)C(=O)N[C@@H](CCCCN)C(=O)N[C@@H](CCCCN)C(N)=O)[C@@H](C)CC [Sample 13, PPRKKRTVVKVQIINKK] (H-PPRKKRTVVKVQIINKK-NH2) | 0.78 | particularly high antimicrobial activities | 3.13 | – |
| 25 | 50 | CC[C@H](C)[C@H](NC(=O)[C@H](CCC(N)=O)NC(=O)[C@@H](NC(=O)[C@H](CCCCN)NC(=O)[C@H](Cc1ccc(O)cc1)NC(=O)[C@@H](NC(=O)[C@@H](NC(=O)[C@H](CCC(N)=O)NC(=O)[C@@H](N)C(C)C)[C@@H](C)CC)C(C)C)C(C)C)C(=O)N[C@H](C(=O)N[C@@H](Cc1ccc(O)cc1)C(=O)N[C@@H](CCCCN)C(N)=O)C(C)C [Sample 14, VQIVYKVQIVYK] (H-VQIVYKVQIVYK-NH2) | – | particularly high antimicrobial activities | – | – |

Reference: US7964556B1, “Antimicrobial peptides and use thereof” (Toagosei Co., Ltd, priority 2004, dated 2011)
